Experimental data: patent publication US20190008870A1, “COMPOSITIONS AND METHODS FOR LIPID METABOLISM DISORDER” (JANSFAT BIOTECHNOLOGY CO., LTD., priority 2016, published 2019)

How the values were obtained:
fatty liver = test: Gross morphology and H&E staining of liver of HFD mice; type: in vivo
Procedure: Mice liver and epididymal fat pads were cut and soaked in formalin, dehydrated through graded alcohols and embedded in paraffin. Specimens of liver tissues and epididymal fat pads fixed with formalin (4%) were embedded in paraffin for one hour at 4° C., cut into 4-μm-thick sections, and subjected to H&E staining before examination by light microscope.

ApoA-I = ApoA-I expression in HepG2 cells; type: cell-based; conditions: 10^−9-10^−5 M
Procedure: (§1) The HepG2 hepatoma cell line was purchased from the American Type Culture Collection (ATCC, Manassas, Va., U.S.A.). Cells were cultured in Dulbecco's Modified Eagle's Medium (DMEM). The culture media was supplemented with 5% heat-inactivated FBS, penicillin (100 U/mL) and streptomycin (100 μg/mL). Cells were grown in a humidified atmosphere containing 5% CO2 at 37° C., in which the oxygen tension in the incubator was held at 140 mmHg (20% O2, v/v; normoxic conditions). […] Then the targeted drugs solution was incubated with the cells for 24 hours, followed by protein extraction. The targeted drugs were added to the […].
(§2) HepG2 cells were treated with various concentrations of targeted drugs for 24 hours. Reactions were terminated by washing twice with cold PBS, and the cells were then harvested. Proteins in the whole-cell lysate were homogenized in an ice-cold lysis buffer and a protease inhibitor (Sigma-Aldrich, St. Louis, Mo., U.S.A.). The homogenate was centrifuged at 90,000×g for 15 minutes at 4° C., and supernatant was recovered as the total cellular protein. […]

LDLRs [1] = test: IHC staining of LDLRs in livers of HFD mice; type: in vivo; conditions: HFD animals, protection and treatment groups
IL-10 = test: IHC staining of IL-10 in epididymal fat pads; type: in vivo, mice; conditions: HFD 14 weeks, KMUP-1 2.5 mg/kg/day, Control 31
Procedure: For IHC of MMP-9/TNFα, HSL/p-HSL/ATGL and eNOS/IL-10, antigen retrieval of de-paraffinated sections was performed in Dako target retrieval solution, pH 9.0, in a vegetable steamer followed by the quenching of endogenous peroxidase activity with 3.0% H2O2 in methanol. Sections were then incubated with specific primary antibodies overnight at 4° C. in a humidified chamber. The antibodies used included rabbit polyclonal anti-eNOS (1:50 dilution) (Abcam, Cambridge, UK) or rabbit monoclonal anti-cleaved caspase-3 (1:50 dilution) (Cell Signaling, U.S.A.). The sections were then examined using a DAKO REAL EnVision™ Detection System kit (DAKO, Carpinteria, Calif., U.S.A.) and counterstained with hematoxylin. Images were obtained through a Nikon Eclipse TE200-S microscope.

HSL = HSL immunoreactivity in HepG2 cells; type: cell-based; conditions: 24 hours
Procedure: To determine that KMUP-1 or targeted drugs can affect PKA, we incubated KMUP-1 (10^−4, 10^−5, 10^−6 M) or targeted drugs with HepG2 cells for 24 hours to measure the protein expressions of PKA/PKG by Western blotting or PKA/PKG and HSL immunoreactivities by fluorescence staining, combined with image scanning in the absence or presence of oxidized LDL (200 μg/mL).

eNOS = test: Expression of eNOS (Table 12); conditions: Control group 100 (%)
LXRα = LXRα expression in HepG2 cells; type: cell-based; conditions: 10^−9-10^−5 M
Procedure: as §1, §2

LDLRs [2] = test: Fluorescence staining of LDLRs in HepG2 cells; type: cell-based
Procedure: HepG2 cells were used to determine the cellular protein expression of LDLRs in the presence of exogenous LDL (500 μg/mL). […] All images were collected and analyzed by scanning with Nikon Eclipse TE200-S microscope (Tokyo, Japan).

Cn1c(=O)c2c(ncn2CCN2CCN(c3ccccc3Cl)CC2)n(C)c1=O [KMUP-1, 7-[2-[4-(2-chlorophenyl)piperazinyl]ethyl]-1,3-dimethylxanthine]
Fatty liver (gross morphology) (fatty liver; drinking 2.5 mg/200 ml water, protective group): markedly decreased | fat globules and Mallory's hyaline bodies (H&E staining of liver) (fatty liver; oral 2.5 mg/kg, last 6 weeks/14 weeks): reduced | ApoA-I expression (ApoA-I): concentration-dependently increased | hepatic LDLRs (IHC staining) (LDLRs [1]): increased | Immunorespons percentages, IL-10 (IL-10): 56% | HSL immunoreactivity (green fluorescence) (HSL): increased | eNOS expression (eNOS): 155.16 ± 14.8% | LXRα expression (LXRα): concentration-dependently increased | LDLR (green fluorescence) expression (LDLRs [2]; 24 hours, KMUP-1 10^−6, 10^−5, 10^−4 M, simvastatin 10^−5 M): increased | LDLR fluorescence at high concentration (LDLRs [2]; concentrations >10^−4 M, near the viability range): decline in fluoresence
